# Data: patent US10829798B2, “DNA-linked enzyme-coupled assays” (THE REGENTS OF THE UNIVERSITY OF CALIFORNIA, priority 2014, dated 2020)
# Assays:
# OleD [1] = molecular target: T1, OleD (Streptomyces antibioticus, UniProt Q53685, P55A/R82V/R83E/T84P); assay: qPCR DLEnCA, cell-free transcription/translation-derived OleD; type: biochemical
# T1 construct: made in house; host or cells: PURExpress In Vitro Protein Synthesis Kit (NEB E6800L), cell-free transcription/translation, linear DNA with T7 promoter
# Method: FIG. 4A-FIG. 4D. qPCR DLEnCA and substrate specificity studies. A. Chemicals used as substrates in subsequent assays: (i) known substrates of OleD; (ii) flavone library; (iii) known substrates of GT05 (UGT72B1 (Q9M156)) and GT06 (UGT89B1 (AT1 G73880)). B. DNA encoding OleD (5 nM) was incubated in a cell-free transcription/translation system for 3 hours at 37° C., followed by the addition of chemical (1 mM) and UDP-Glc (2 μM). After a subsequent incubation of 3 hours, TbGT and probe (0.2 nM) were added. After probe purification and MfeI digestion, probe integrity was identified using qPCR. Percent recovery of probe is reported (n=8; error bars=standard error). C. DNA encoding OleD (5 nM) was incubated for 3 hours at 37° C. in a cell-free transcription/translation system, followed by the addition of flavone (1 mM) and UDP-Glc (2 μM). After a subsequent incubation of 3 hours, TbGT and probe (0.2 nM) were added. After probe purification and MfeI addition, probe integrity was identified using qPCR. Percent recovery of probe is reported (n=8; error bars=standard error). D. DNA encoding OleD, GT05, or GT06 (5 nM) were incubated for 3 hours at 37° C. in a cell-free transcription/translation system, followed by the addition of chemical (1 mM) and UDP-Glc (2 μM). After a subsequent incubation of 3 hours, TbGT and probe (0.2 nM) were added. After probe purification and MfeI digestion, probe integrity was identified using qPCR. Percent recovery of probe is reported as a heat map (n=8) (specific recovery figures and percent error can be found in FIG. 16). *=p<0.05 vs. no chemical control.
# PCR tubes were used for most reactions. All incubations were performed at 37° C. Assays were initiated upon the addition of linear DNA (5 nM final concentration) to 4 μl PURExpress Solution A and 3 μl PURExpress Solution B. Samples were incubated at 37° C. for 3 hours prior to addition of UDP-Glucose and chemical (1 mM final concentration) in DMSO. Samples were incubated for an additional 3 hours prior to addition of 1 unit T4 Phage β-glucosyltransferase containing 0.2 nM probe. Samples were incubated an additional 3 hours before DNA was purified using the Zymo DNA Clean and Concentrator Kit. Samples were digested overnight with MfeI prior to analysis. Concentration of intact DNA probe was identified using the iQ SYBR Green Supermix (1708880) with probe DNA as standards. qPCR was carried out on the Bio-Rad iQ5 Multicolor Real-Time PCR Detection System using primers P13 and P14 with the following temperatures; 94° C. 30 seconds followed by 40 cycles of 94° C. 10 seconds and 55° C. for 30 seconds. All results were compared to uncut probe DNA that had been carried through the process as negative controls (considered full recovery of probe).
# The second DLEnCA workflow developed involved qPCR as a final readout (qPCR DLEnCA, FIG. 1—qPCR workflow). A linear fragment of DNA was modified to contain 5-hm-cytosines throughout. To determine a threshold for probe protection under conditions amenable to the qPCR DLEnCA workflow, UDP-Glc was titrated into mixtures of the cell-free transcription/translation system containing 5-hm-cytosine-modified DNA probe (0.2 nM probe DNA containing 0.1 μM modified 5-hm-cytosines) and TbGT. After digestion with the restriction enzyme MfeI, the amount of intact DNA probe was determined using qPCR (FIG. 3C). […] A threshold for protection was identified at a 20:1 molar ratio of UDP-Glc to total 5-hm-cytosine in probe DNA; this UDP-Glc amount was used as the starting concentration of UDP-Glc for all qPCR experiments. To test the feasibility of qPCR DLEnCA, OleD was again tested upon the substrate kaempferol (FIG. 3D), using DNA encoding a promoter and OleD as starting material. As expected, when all components of the assay were present, 27% of intact probe DNA was recovered. […]
# OleD [2] = molecular target: T1, OleD; assay: FRET DLEnCA, cell-free transcription/translation-derived OleD, fluorescence readout; type: biochemical; settings: all components present; chemical 1 mM, UDP-Glc 5 μM, FRET probe 250 nM
# Method: FIG. 3A-FIG. 3D. DNA-Linked Enzyme-Coupled Assay using cell-free transcription/translation system. A. UDP-Glc was titrated into reactions containing 250 nM FRET probe, TbGT, and a cell-free transcription/translation system. After 3 hours incubation at 37° C., probe was digested with MfeI and resulting digests were analyzed using fluorescent spectrometry (n=6, error bars=standard error). B. DNA encoding OleD (5 nM) was incubated in a cell-free transcription/translation system for 3 hours at 37° C., followed by the addition of UDP-Glucose (5 μM) and kaempferol (1 mM). After a subsequent incubation of 3 hours, TbGT and FRET probe (250 nM) were added. Following MfeI addition, fluorescence formation was monitored using fluorometry. […] Digests were analyzed using qPCR. […]
# Assays were performed using 250 nM fluorescent probe (Sequence provided in FIG. 21) in place of the linear probe. Fluorescence was detected using a Tecan Safire^2 using the following settings: excitation wavelength 550 nm, emission wavelength 564 nm, excitation bandwidth 5 nm, emission bandwidth 5 nm, Gain (manual) 120, Number of reads 10, FlashMode High Sensitivity, Integration time 100 μs, lag time 0 μs, Z-position 12000 μm, Temperature 37° C. Development of fluorescence after MfeI addition was monitored over an 8 hour period. […]
# T1 sequence (Q53685 other isoform, or with tags, fused parts or gaps P55A/R82V/R83E/T84P): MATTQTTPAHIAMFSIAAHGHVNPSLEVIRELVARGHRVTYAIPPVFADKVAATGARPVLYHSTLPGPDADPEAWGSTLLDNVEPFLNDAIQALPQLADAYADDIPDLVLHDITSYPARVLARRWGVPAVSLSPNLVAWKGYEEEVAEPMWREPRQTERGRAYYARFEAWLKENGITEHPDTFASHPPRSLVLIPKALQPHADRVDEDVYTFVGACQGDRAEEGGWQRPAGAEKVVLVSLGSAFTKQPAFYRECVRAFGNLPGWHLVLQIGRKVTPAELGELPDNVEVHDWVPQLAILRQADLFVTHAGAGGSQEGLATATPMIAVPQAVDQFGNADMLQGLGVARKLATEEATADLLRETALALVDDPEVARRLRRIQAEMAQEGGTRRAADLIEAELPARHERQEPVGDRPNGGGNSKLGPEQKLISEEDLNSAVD
structure (smiles),measurement,setting,value
"O=c1c(O)c(-c2ccc(O)cc2)oc2cc(O)cc(O)c12 [I, kaempferol]",recovery of intact probe DNA,"OleD [1]; OleD DNA 5 nM, chemical 1 mM, UDP-Glc 2 μM, probe 0.2 nM, low recovery = substrate glucosylated",27%
same,activity of OleD with chemical,"OleD [1]; tested against I, X, XI, XII, qPCR DLEnCA, verified with LCMS",showed activity
same,fluorescent reading after MfeI digestion of FRET probe,OleD [2],50 RFU
